{"source": "patent US20100081630A1", "about": "“Heparin Compositions and Selectin Inhibition” (University of California, priority 2005, published 2010)", "key": {"[1]": {"test": "Plasma anti-Xa levels after subcutaneous heparin dosing", "format": "in vivo", "conditions": "mice", "protocol": "Anti-Xa levels were measured in plasma from multiple mice, 30 min after each mouse received a single “1×” or “3×” subcutaneous dose of various heparins. Each open circle represents one mouse and horizontal bars represent mean values.\nTitrating Heparin Dosage via Plasma Anti-Xa Levels: Mice were injected subcutaneously with 100 ul of UFH, TINZ, or FOND diluted in PBS, at various final concentrations. Thirty minutes later, blood was collected by cardiac puncture into 1 cc syringe containing 30 ul 10 mM EDTA. Samples were centrifuged twice at 2,000 rcf at 24° C. to collect the plasma, which was stored at −80° C. until analysis for anti-Xa activity. […] The resulting chromophore was measured at 405 nm. Plasma heparin levels were calculated in anti-Xa units/ml by comparing against a standard curve of heparin-spiked mouse plasma samples. Standards and samples were analyzed in triplicate. […]\nPharmacokinetic Studies in Mice to Normalize Heparin Dosing. […] Therapeutic levels for patients treated with heparin for venous thromboembolism are ˜1 anti-factor Xa unit/ml for LMWHs, typically measured at 3-4 hours after injection. […] Plasma anti-Xa levels were analyzed 30 minutes after subcutaneous delivery, which is when the tumor cells would be injected into the vasculature in the planned metastasis experiments. […] Single heparin doses were increased from “1×” to “3×” dosing, and analyzed the anti-Xa levels (FIG. 2B). […]"}, "[2]": {"system": "B16F1 cells", "test": "Melanoma experimental metastasis assay", "format": "in vivo, mouse", "conditions": "1× dose s.c. 30 min before i.v. B16F1 cells; day 17", "protocol": "FIG. 4 depicts heparins with selectin-inhibitory activity that inhibit metastasis of melanoma cells. Mice were injected subcutaneously with “1×” heparin (A) or “3×” heparin (B) (or PBS as a control), and 30 minutes later were injected intravenously with B16F1 cells. After 17 days, mice were euthanized, lungs perfused with formalin through the trachea and then allowed to fix in formalin for a minimum of 24 hours. Metastasis was quantified by measuring lung weight, which correlated well with the physical appearance of the lungs, documented by photography (representative pictures are shown below quantification). Open circles each represent one mouse and horizontal bars represent mean lung weights. P-values were determined by a Student's T-test, assuming two-tailed, unequal distribution.\nMelanoma Experimental Metastasis Assay: Mice were injected with heparin and 500,000 B16F1 cells using the protocol described for the carcinoma metastasis assay. […] Lung weights were determined by removing the lungs from formalin, briefly setting them on filter paper to remove excess liquid, and then weighing them on a Sartorius analytical scale.\nHeparin Inhibition of Melanoma Metastasis is Also Dependent on Selectin-Inhibitory Activity. […] Seventeen days following injection, the lungs were excised and evaluated for the presence of metastatic foci. […]"}, "[3]": {"system": "tumor cells", "conditions": "cited from earlier work"}, "[4]": {"conditions": "hirudin 10 mg/kg, at the time of tumor cell injection; almost all above limits of detection; cited from earlier work"}, "[5]": {"conditions": "incorporated into liposomes; cited from earlier work"}}}
{"compound": "CO[C@H]1O[C@H](COS(=O)(=O)O)[C@@H](O[C@@H]2O[C@@H](C(=O)O)[C@@H](O[C@H]3O[C@H](COS(=O)(=O)O)[C@@H](O[C@@H]4O[C@H](C(=O)O)[C@@H](O[C@H]5O[C@H](COS(=O)(=O)O)[C@@H](O)[C@H](O)[C@H]5NS(=O)(=O)O)[C@H](O)[C@H]4O)[C@H](OS(=O)(=O)O)[C@H]3NS(=O)(=O)O)[C@H](O)[C@H]2OS(=O)(=O)O)[C@H](O)[C@H]1NS(=O)(=O)O", "note": "[FOND, Fondaparinux]", "values": [{"measurement": "mean plasma anti-Xa level", "setting": "[1]; 30 min after single subcutaneous 1× dose, range meant: therapeutic ~1 anti-factor Xa unit/ml", "value": "within this range"}, {"measurement": "plasma anti-Xa level", "setting": "[1]; 30 min after single subcutaneous 3× dose", "value": "at or above the accepted range for clinical anticoagulation"}, {"measurement": "metastasis (lung weight)", "setting": "[2]", "value": "no effect"}]}
{"compound": "hirudin", "values": [{"measurement": "pulmonary arrest of tumor cells", "setting": "[3]; hirudin 10 mg/kg twenty minutes prior to tumor cell injection", "value": "decreased pulmonary arrest of tumor cells"}, {"measurement": "formation of metastatic foci", "setting": "[3]; hirudin 20 mg/kg before, 4 h after, then every other day for 10 days, i.v. tumor cells", "value": "significant decrease in formation of metastatic foci"}, {"measurement": "clotting time in activated partial thromboplastin time test", "setting": "[4]", "value": "> 300", "unit": "s"}]}
{"compound": "CCCCCCCCCCCCCCCC(=O)OCn1ccnc1", "note": "[PMI, 1-(palmitoyloxymethyl)imidazole]", "values": [{"measurement": "apparent pKa", "setting": "[5]", "value": 5.12}]}
